Source: BindingDB's records for doi:10.1021/jm00007a008 (Glaxo Inc. Research Institute, 1995)

assay: In vitro fragmentation of DNA in the presence of excess calf thymus topoisomerase.

| Structure (SMILES) | IC50 [nM] |
| --- | --- |
| CC[C@@]1(O)C(=O)OCc2c1cc1n(c2=O)Cc2c-1nc1cnc(C#CCN)cc1c2C [(S)-9-(3-Amino-prop-1-ynyl)-4-ethyl-4-hydroxy-11-methyl-1,12-dihydro-4H-2-oxa-6,8,12a-triaza-dibenzo[b,h]fluorene-3,13-dione] | 505 |
| CC[C@@]1(O)C(=O)OCc2c1cc1n(c2=O)Cc2cc3ccncc3nc2-1 [(S)-4-Ethyl-4-hydroxy-1,12-dihydro-4H-2-oxa-6,8,12a-triaza-dibenzo[b,h]fluorene-3,13-dione] | 383 |
| CC[C@@]1(O)C(=O)OCc2c1cc1n(c2=O)Cc2c-1nc1cnc(C#CCN3CCOCC3)cc1c2C [(S)-4-Ethyl-4-hydroxy-11-methyl-9-(3-morpholin-4-yl-prop-1-ynyl)-1,12-dihydro-4H-2-oxa-6,8,12a-triaza-dibenzo[b,h]fluorene-3,13-dione] | 1110 |
| CC[C@@]1(O)C(=O)OCc2c1cc1n(c2=O)Cc2cc3cc[n+]([O-])cc3nc2-1 [(S)-4-Ethyl-4-hydroxy-8-oxy-1,12-dihydro-4H-2-oxa-6,8,12a-triaza-dibenzo[b,h]fluorene-3,13-dione] | 1180 |
| CCc1c2c(nc3cnc(CCCN(C)C)cc13)-c1cc3c(c(=O)n1C2)COC(=O)[C@]3(O)CC [(S)-9-(3-Dimethylamino-propyl)-4,11-diethyl-4-hydroxy-1,12-dihydro-4H-2-oxa-6,8,12a-triaza-dibenzo[b,h]fluorene-3,13-dione] | 1490 |
| CCOC(=O)c1cc2c(CC)c3c(nc2cn1)-c1cc2c(c(=O)n1C3)COC(=O)[C@]2(O)CC [(S)-4,11-Diethyl-4-hydroxy-3,13-dioxo-3,4,12,13-tetrahydro-1H-2-oxa-6,8,12a-triaza-dibenzo[b,h]fluorene-9-carboxylic acid ethyl ester] | 949 |
| CCc1c2c(nc3cnc(C(=O)NCCN(C)C)cc13)-c1cc3c(c(=O)n1C2)COC(=O)[C@]3(O)CC [(S)-4,11-Diethyl-4-hydroxy-3,13-dioxo-3,4,12,13-tetrahydro-1H-2-oxa-6,8,12a-triaza-dibenzo[b,h]fluorene-9-carboxylic acid (2-dimethylamino-ethyl)-amide] | 9330 |
| CCc1c2c(nc3cnc(CN)cc13)-c1cc3c(c(=O)n1C2)COC(=O)[C@]3(O)CC [(S)-9-Aminomethyl-4,11-diethyl-4-hydroxy-1,12-dihydro-4H-2-oxa-6,8,12a-triaza-dibenzo[b,h]fluorene-3,13-dione] | 167 |
| CCc1c2c(nc3cnc(C#N)cc13)-c1cc3c(c(=O)n1C2)COC(=O)[C@]3(O)CC [(S)-4,11-Diethyl-4-hydroxy-3,13-dioxo-3,4,12,13-tetrahydro-1H-2-oxa-6,8,12a-triaza-dibenzo[b,h]fluorene-9-carbonitrile] | 268 |
| CC[C@@]1(O)C(=O)OCc2c1cc1n(c2=O)Cc2c-1nc1c[n+]([O-])c(CNC(=O)OC(C)(C)C)cc1c2C [((S)-4-Ethyl-4-hydroxy-11-methyl-3,13-dioxo-8-oxy-3,4,12,13-tetrahydro-1H-2-oxa-6,8,12a-triaza-dibenzo[b,h]fluoren-9-ylmethyl)-carbamic acid tert-butyl ester] | 217 |
| CCc1c2c(nc3cnc(C#CCN(C)C)cc13)-c1cc3c(c(=O)n1C2)COC(=O)[C@]3(O)CC [(S)-9-(3-Dimethylamino-prop-1-ynyl)-4,11-diethyl-4-hydroxy-1,12-dihydro-4H-2-oxa-6,8,12a-triaza-dibenzo[b,h]fluorene-3,13-dione] | 1330 |
| CCc1c2c(nc3cnc(Br)cc13)-c1cc3c(c(=O)n1C2)COC(=O)[C@]3(O)CC [(S)-9-Bromo-4,11-diethyl-4-hydroxy-1,12-dihydro-4H-2-oxa-6,8,12a-triaza-dibenzo[b,h]fluorene-3,13-dione] | 122 |
| CCc1c2c(nc3cnccc13)-c1cc3c(c(=O)n1C2)COC(=O)[C@]3(O)CC [(S)-4,11-Diethyl-4-hydroxy-1,12-dihydro-4H-2-oxa-6,8,12a-triaza-dibenzo[b,h]fluorene-3,13-dione] | 336 |

assay: Minimum concentration that produced 50% fragmentation of DNA was measured in the presence of excess calf thymus topoisomerase.

| Structure (SMILES) | IC50 [nM] |
| --- | --- |
| CC[C@@]1(O)C(=O)OCc2c1cc1n(c2=O)Cc2c-1nc1c[n+]([O-])c(CN)cc1c2C [(S)-9-Aminomethyl-4-ethyl-4-hydroxy-11-methyl-8-oxy-1,12-dihydro-4H-2-oxa-6,8,12a-triaza-dibenzo[b,h]fluorene-3,13-dione] | 190 |
| CCc1c2c(nc3cnc(C(=N)NO)cc13)-c1cc3c(c(=O)n1C2)COC(=O)[C@]3(O)CC [(S)-4,11-Diethyl-4,N-dihydroxy-3,13-dioxo-3,4,12,13-tetrahydro-1H-2-oxa-6,8,12a-triaza-dibenzo[b,h]fluorene-9-carboxamidine] | 71 |
| CCc1c2c(nc3c[n+](C)ccc13)-c1cc3c(c(=O)n1C2)COC(=O)[C@]3(O)CC [(S)-4,11-Diethyl-4-hydroxy-8-methyl-3,13-dioxo-3,4,12,13-tetrahydro-1H-2-oxa-6,12a-diaza-8-azonia-dibenzo[b,h]fluorene; iodide] | 1460 |
| CC[C@@]1(O)C(=O)OCc2c1cc1n(c2=O)Cc2c-1nc1cnc(CN)cc1c2C [(S)-9-Aminomethyl-4-ethyl-4-hydroxy-11-methyl-1,12-dihydro-4H-2-oxa-6,8,12a-triaza-dibenzo[b,h]fluorene-3,13-dione] | 232 |
| CCc1c2c(nc3cnc(C#CCN)cc13)-c1cc3c(c(=O)n1C2)COC(=O)[C@]3(O)CC [(S)-9-(3-Amino-prop-1-ynyl)-4,11-diethyl-4-hydroxy-1,12-dihydro-4H-2-oxa-6,8,12a-triaza-dibenzo[b,h]fluorene-3,13-dione] | 1080 |
| CCc1c2c(nc3cnc(C(=N)N)cc13)-c1cc3c(c(=O)n1C2)COC(=O)[C@]3(O)CC [(S)-4,11-Diethyl-4-hydroxy-3,13-dioxo-3,4,12,13-tetrahydro-1H-2-oxa-6,8,12a-triaza-dibenzo[b,h]fluorene-9-carboxamidine] | 33 |
